Results reported in ChEMBL document CHEMBL6134804, “Identifying thiourea-based hybrids of quinazoline and oxospirochromane as inhibitors of Plasmodium cysteine proteases arresting the parasitic growth at the early trophozoite stage” (Bioorg Med Chem Lett, 2025).
Calls of active or inactive are those of the source. The rule behind the calls is not given here.

Experiments:
[1] = test system: Plasmodium falciparum; test: Antiplasmodial activity against sorbitol-synchronized ring stage chloroquine sensitive Plasmodium falciparum 3D7 infected in human erythrocytes assessed as parasitic growth inhibition incubated for 48 to 50 hrs by SYBR Green 1 based microtiter plate spectrofluorimeteric analysis; format: functional, organism-based; conditions: 3D7, Erythrocyte
[2] = test system: Plasmodium falciparum; test: Antiplasmodial activity against sorbitol-synchronized ring stage chloroquine resistant Plasmodium falciparum W2 infected in human erythrocytes assessed as parasitic growth inhibition incubated for 48 to 50 hrs by SYBR Green 1 based microtiter plate spectrofluorimeteric analysis; format: functional, organism-based; conditions: W2, Erythrocyte
[3] = Inhibition of Plasmodium falcipain-3 using Z-Leu-Arg-AMC as substrate preincubated for 30 mins followed by substrate addition and measured after 30 mins by microtiter plate spectrofluorimeteric analysis
[4] = Inhibition of Plasmodium falcipain-2 using Z-Leu-Arg-AMC as substrate preincubated for 30 mins followed by substrate addition and measured after 30 mins by microtiter plate spectrofluorimeteric analysis
[5] = Selectivity index, ratio of IC50 for cytotoxicity against African green monkey Vero cells to antiplasmodial activity against sorbitol-synchronized ring stage chloroquine sensitive Plasmodium falciparum 3D7 infected in human erythrocytes; format: toxicity, cell-based; conditions: read-out: Ratio IC50
[6] = Resistance index, ratio of IC50 for antiplasmodial activity against chloroquine sensitive Plasmodium falciparum 3D7 infected in human erythrocytes to antiplasmodial activity against chloroquine resistant Plasmodium falciparum W2 infected in human erythrocytes; format: functional
[7] = Selectivity index, ratio of IC50 for cytotoxicity against African green monkey Vero cells to antiplasmodial activity against sorbitol-synchronized ring stage chloroquine resistant Plasmodium falciparum W2 infected in human erythrocytes; format: toxicity, cell-based; conditions: read-out: Ratio IC50
[8] = Selectivity index, ratio of IC50 for cytotoxicity against human […] cells to antiplasmodial activity against sorbitol-synchronized ring stage chloroquine sensitive Plasmodium falciparum 3D7 infected in human erythrocytes; format: cell-based; conditions: read-out: Ratio IC50
[9] = test system: A549; test: Cytotoxicity against human A549 cells assessed as inhibition of cell growth incubated for 24 hrs by MTT assay; format: functional, cell-based; conditions: A549, 24 h
[10] = Selectivity index, ratio of IC50 for cytotoxicity against human […] cells to antiplasmodial activity against sorbitol-synchronized ring stage chloroquine resistant Plasmodium falciparum W2 infected in human erythrocytes; format: cell-based; conditions: read-out: Ratio IC50
[11] = Cytotoxicity against African green monkey Vero cells assessed as reduction in cell viability incubated for 72 hrs by MTT assay; format: toxicity, cell-based; conditions: African green monkey (Chlorocebus sabaeus)
[12] = test system: Plasmodium falciparum; test: Antiplasmodial activity against ring-stage Plasmodium falciparum assessed as enlarged feeding vacuoles with hemoglobin accumulation at 3 times IC50 concentration measured after 48 hrs by Giemsa staining based analysis; format: functional, organism-based
[13] = Hemolytic activity in human Red blood cells assessed as hemolysis at 100 uM incubated for 2 hrs by spectrofluorimetric analysis; format: toxicity, cell-based; conditions: erythrocyte
[14] = test system: Plasmodium falciparum; test: Antiplasmodial activity against ring stage of Plasmodium falciparum assessed as developmental arrest at early trophozoite stage at 3 times IC50 concentration measured after 48 hrs by Giemsa staining based analysis; format: functional, organism-based
[15] = test system: Plasmodium falciparum; test: Antiplasmodial activity against ring-stage Plasmodium falciparum assessed as reduction in formation of new rings at 3 times IC50 concentration measured after 48 hrs by Giemsa staining based analysis; format: functional, organism-based
[16] = Inhibition of Plasmodium falciparum ATP4

IC50 [16] | SMILES | IC50 [1] | IC50 [2] | IC50 [3] | IC50 [4] | selectivity ratio [5] | Ratio IC50 [6] | selectivity ratio [7] | selectivity ratio [8] | IC50 [9] | selectivity ratio [10] | IC50 at 72 h [11] | Activity [12] | Activity [13] | Activity [14] | Activity [15]
– | O=C1CC2(CCN(c3nc(N4CCN(C(=S)Nc5cccc(Cl)c5)CC4)nc4ccccc34)CC2)Oc2ccccc21 | 6.37 µM | > 15 µM | – | – | – | – | – | – | – | – | – | – | – | – | –
– | CC(C)C[C@H](NC(=O)[C@@H]1O[C@H]1C(=O)O)C(=O)NCCCCN=C(N)N | – | – | 0.116 µM | 0.0544 µM | – | – | – | – | – | – | – | – | – | – | –
– | CCc1nc(N)nc(N)c1-c1ccc(Cl)cc1 [PYRIMETHAMINE] | – | 0.129 µM | – | – | – | – | – | – | – | – | – | – | – | – | –
– | O=C1CC2(CCN(c3nc(N4CCN(C(=S)Nc5ccc(F)cc5)CC4)nc4ccccc34)CC2)Oc2ccccc21 | 4.66 µM | 8.98 µM | 14.4 µM | 11.4 µM | > 215 | 0.52 | > 111 | 65.8 | 307 µM | 34.1 | > 1 mM | – | – | – | –
– | O=C1CC2(CCN(c3nc(N4CCN(C(=S)Nc5ccc(Br)cc5)CC4)nc4ccccc34)CC2)Oc2ccccc21 | 7.29 µM | 4.84 µM | – | – | – | 1.51 | – | – | – | – | – | – | – | – | –
– | COc1cccc(NC(=S)N2CCN(c3nc(N4CCC5(CC4)CC(=O)c4ccccc4O5)c4ccccc4n3)CC2)c1 | 5.68 µM | 3.87 µM | – | – | – | 1.47 | – | – | – | – | – | – | – | – | –
– | O=C1CC2(CCN(c3nc(N4CCN(C(=S)Nc5ccccc5)CC4)nc4ccccc34)CC2)Oc2ccccc21 | 24.7 µM | > 15 µM | – | – | – | – | – | – | – | – | – | – | – | – | –
– | O=C1CC2(CCN(c3nc(N4CCN(C(=S)Nc5ccccc5Cl)CC4)nc4ccccc34)CC2)Oc2ccccc21 | 3.98 µM | 4.43 µM | 5.9 µM | 4.6 µM | > 251 | 0.9 | > 226 | 16.9 | 67.2 µM | 15.2 | > 1 mM | Active | Non-toxic | Active | Active
– | Cc1cccc(C)c1NC(=S)N1CCN(c2nc(N3CCC4(CC3)CC(=O)c3ccccc3O4)c3ccccc3n2)CC1 | 4.83 µM | 7.12 µM | 6.4 µM | 5.9 µM | > 207 | 0.68 | > 140 | 21 | 102 µM | 14.3 | > 1 mM | Active | Non-toxic | Active | Active
– | COc1ccccc1NC(=S)N1CCN(c2nc(N3CCC4(CC3)CC(=O)c3ccccc3O4)c3ccccc3n2)CC1 | 3.42 µM | 5.12 µM | 6.2 µM | 5.4 µM | > 292 | 0.66 | > 195 | 24.1 | 82.5 µM | 16.1 | > 1 mM | Active | Non-toxic | Active | Active
– | O=C1CC2(CCN(c3nc(N4CCN(C(=S)Nc5ccc(F)c(F)c5)CC4)nc4ccccc34)CC2)Oc2ccccc21 | 17.7 µM | > 15 µM | – | – | – | – | – | – | – | – | – | – | – | – | –
– | COc1ccc(NC(=S)N2CCN(c3nc(N4CCC5(CC4)CC(=O)c4ccccc4O5)c4ccccc4n3)CC2)cc1 | 23.3 µM | > 15 µM | – | – | – | – | – | – | – | – | – | – | – | – | –
– | O=C1CC2(CCN(c3nc(N4CCN(C(=S)Nc5ccc(OC(F)(F)F)cc5)CC4)nc4ccccc34)CC2)Oc2ccccc21 | 3.88 µM | > 15 µM | – | – | – | – | – | – | – | – | – | – | – | – | –
1 nM | C[C@H]1Cc2c([nH]c3cc(Cl)c(F)cc23)[C@@]2(N1)C(=O)Nc1ccc(Cl)cc12 [CIPARGAMIN] | – | – | – | – | – | – | – | – | – | – | – | – | – | – | –
– | O=C1CC2(CCN(c3nc(N4CCN(C(=S)Nc5ccc(F)cc5F)CC4)nc4ccccc34)CC2)Oc2ccccc21 | 5.28 µM | > 15 µM | – | – | – | – | – | – | – | – | – | – | – | – | –
– | O=C1CC2(CCN(c3nc(N4CCN(C(=S)Nc5ccc(F)c(Cl)c5)CC4)nc4ccccc34)CC2)Oc2ccccc21 | 3.18 µM | 3.56 µM | 4.9 µM | 3.9 µM | > 314 | 0.89 | > 281 | 18.3 | 58.3 µM | 16.4 | > 1 mM | Active | Non-toxic | Active | Active
– | O=C1CC2(CCN(c3nc(N4CCN(C(=S)Nc5cccc(C(F)(F)F)c5)CC4)nc4ccccc34)CC2)Oc2ccccc21 | 7.97 µM | > 15 µM | – | – | – | – | – | – | – | – | – | – | – | – | –
– | O=C1CC2(CCN(c3nc(N4CCN(C(=S)NCc5ccccc5)CC4)nc4ccccc34)CC2)Oc2ccccc21 | 4.79 µM | 14.4 µM | 10.8 µM | 10.4 µM | > 209 | 0.33 | > 69.6 | 44.7 | 214 µM | 14.9 | > 1 mM | – | – | – | –
– | Cc1ccc(NC(=S)N2CCN(c3nc(N4CCC5(CC4)CC(=O)c4ccccc4O5)c4ccccc4n3)CC2)cc1 | 16.1 µM | > 15 µM | – | – | – | – | – | – | – | – | – | – | – | – | –
